From article PMC7347570, “A new functional JAZ degron sequence in strawberry JAZ1 revealed by structural and interaction studies on the COI1–JA-Ile/COR–JAZs complexes” (Scientific Reports, 2020)

Key:
Test in all cases: yeast two-hybrid (GAL4), COR-dependent growth
Assay type in all cases: cell-based
FaCOI1–FaJAZ10 = molecular target: T1, FaCOI1–FaJAZ10 (Fragaria x ananassa, UniProt A0A290U3W5+A0A290U478); details: 50 µM COR; 28 °C, 5 days; SD-Leu-Trp-His selection; JAZ co-receptor
T1 construct: gene COI1; Saccharomyces cerevisiae AH109; degron LPIARR
T1 sequence (A0A290U3W5 entry or part of it): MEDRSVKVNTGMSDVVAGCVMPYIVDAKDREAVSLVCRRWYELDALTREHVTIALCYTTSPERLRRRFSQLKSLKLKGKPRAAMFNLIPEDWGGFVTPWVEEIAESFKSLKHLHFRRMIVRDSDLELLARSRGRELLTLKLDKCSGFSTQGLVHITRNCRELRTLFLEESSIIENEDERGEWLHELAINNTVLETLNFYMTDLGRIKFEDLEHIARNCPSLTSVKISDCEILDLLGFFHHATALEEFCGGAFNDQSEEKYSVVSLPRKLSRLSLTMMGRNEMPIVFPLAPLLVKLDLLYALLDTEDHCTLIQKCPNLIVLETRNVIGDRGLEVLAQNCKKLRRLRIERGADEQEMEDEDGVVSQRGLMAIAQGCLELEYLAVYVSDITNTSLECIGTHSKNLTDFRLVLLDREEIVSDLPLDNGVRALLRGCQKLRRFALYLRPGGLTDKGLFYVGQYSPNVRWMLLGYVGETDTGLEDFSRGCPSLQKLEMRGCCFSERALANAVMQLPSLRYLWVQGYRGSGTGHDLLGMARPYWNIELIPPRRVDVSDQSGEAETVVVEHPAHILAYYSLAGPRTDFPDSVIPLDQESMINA
T1 sequence (A0A290U478 entry or part of it): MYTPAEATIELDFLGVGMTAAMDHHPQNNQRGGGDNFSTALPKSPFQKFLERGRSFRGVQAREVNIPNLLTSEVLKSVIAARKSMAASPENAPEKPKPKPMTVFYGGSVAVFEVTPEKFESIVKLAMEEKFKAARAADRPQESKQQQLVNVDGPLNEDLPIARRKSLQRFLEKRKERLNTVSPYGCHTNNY

FaCOI1–FaJAZ1 = molecular target: T2, FaCOI1–FaJAZ1 (Fragaria x ananassa, UniProt A0A290U0M9+A0A290U3W5); details: 50 µM COR; 28 °C, 5 days; growth on SD-Leu-Trp-His and SD-Leu-Trp-His-Ade; JAZ co-receptor
T2 construct: gene COI1; Saccharomyces cerevisiae AH109; native degron IPMQRK
T2 sequence (A0A290U0M9 entry or part of it): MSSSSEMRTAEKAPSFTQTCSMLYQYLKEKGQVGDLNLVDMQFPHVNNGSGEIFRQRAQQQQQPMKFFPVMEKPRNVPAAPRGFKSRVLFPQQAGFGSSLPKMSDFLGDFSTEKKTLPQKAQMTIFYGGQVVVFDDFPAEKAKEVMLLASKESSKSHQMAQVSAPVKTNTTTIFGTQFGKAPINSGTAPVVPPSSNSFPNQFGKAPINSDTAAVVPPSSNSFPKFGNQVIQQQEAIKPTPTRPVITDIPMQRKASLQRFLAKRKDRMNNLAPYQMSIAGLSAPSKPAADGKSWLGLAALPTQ
T2 sequence (A0A290U3W5 entry or part of it): as the sequence (A0A290U3W5 entry or part of it) above

AtJAZ9 and FaCOI1 = molecular target: T3, AtJAZ9 and FaCOI1 (Fragaria x ananassa; Arabidopsis thaliana, UniProt A0A290U3W5+Q8W4J8); details: 50 µM COR; 28 °C, 5 days; JAZ co-receptor
T3 construct: gene COI1; mixed-species complex; Saccharomyces cerevisiae AH109
T3 sequence (Q8W4J8 whole entry): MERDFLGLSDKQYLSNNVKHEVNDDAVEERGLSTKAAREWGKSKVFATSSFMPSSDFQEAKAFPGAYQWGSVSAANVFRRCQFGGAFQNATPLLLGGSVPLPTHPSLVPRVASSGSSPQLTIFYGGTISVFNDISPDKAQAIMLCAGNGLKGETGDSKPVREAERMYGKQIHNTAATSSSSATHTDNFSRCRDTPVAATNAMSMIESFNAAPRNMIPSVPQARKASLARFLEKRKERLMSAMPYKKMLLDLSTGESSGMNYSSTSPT
T3 sequence (A0A290U3W5 entry or part of it): as the sequence (A0A290U3W5 entry or part of it) above

AtCOI1 with AtJAZ1 = molecular target: T4, AtCOI1 with AtJAZ1 (Arabidopsis thaliana, UniProt O04197+Q9LMA8); details: 50 µM COR; 28 °C, 5 days; JAZ co-receptor
T4 construct: gene COI1; Saccharomyces cerevisiae AH109; degron LPIARR
T4 sequence (Q9LMA8 whole entry): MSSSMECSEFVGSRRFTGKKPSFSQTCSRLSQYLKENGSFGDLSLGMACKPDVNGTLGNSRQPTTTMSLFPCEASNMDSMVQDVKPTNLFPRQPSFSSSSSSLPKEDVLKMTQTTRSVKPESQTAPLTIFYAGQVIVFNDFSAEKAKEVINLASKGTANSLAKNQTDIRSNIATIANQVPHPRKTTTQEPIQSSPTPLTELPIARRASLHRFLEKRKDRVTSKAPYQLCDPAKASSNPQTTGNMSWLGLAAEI
T4 sequence (O04197 whole entry): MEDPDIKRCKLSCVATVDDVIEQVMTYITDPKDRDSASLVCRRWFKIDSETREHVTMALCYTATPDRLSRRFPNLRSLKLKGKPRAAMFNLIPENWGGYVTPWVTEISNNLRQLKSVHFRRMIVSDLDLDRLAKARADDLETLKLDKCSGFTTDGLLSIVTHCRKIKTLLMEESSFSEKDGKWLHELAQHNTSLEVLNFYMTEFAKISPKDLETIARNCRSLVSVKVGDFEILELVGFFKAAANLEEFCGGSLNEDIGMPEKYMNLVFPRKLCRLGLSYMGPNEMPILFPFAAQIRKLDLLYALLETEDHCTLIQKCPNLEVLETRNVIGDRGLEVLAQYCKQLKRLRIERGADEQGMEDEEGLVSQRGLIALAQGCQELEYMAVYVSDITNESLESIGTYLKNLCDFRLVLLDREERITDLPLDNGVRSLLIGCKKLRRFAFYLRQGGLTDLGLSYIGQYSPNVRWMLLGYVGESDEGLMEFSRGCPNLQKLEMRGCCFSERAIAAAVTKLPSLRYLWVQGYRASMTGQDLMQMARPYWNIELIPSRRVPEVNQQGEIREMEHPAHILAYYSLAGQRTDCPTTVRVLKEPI

AtCOI1–FaJAZ1 = molecular target: T5, AtCOI1–FaJAZ1 (Arabidopsis thaliana; Fragaria x ananassa, UniProt A0A290U0M9+O04197); details: 50 µM COR; 28 °C, 5 days; JAZ co-receptor
T5 construct: gene COI1; mixed-species complex; Saccharomyces cerevisiae AH109
T5 sequence (A0A290U0M9 entry or part of it): as the sequence (A0A290U0M9 entry or part of it) above
T5 sequence (O04197 whole entry): as the sequence (O04197 whole entry) above

AtCOI1 with AtJAZ9 = molecular target: T6, AtCOI1 with AtJAZ9 (Arabidopsis thaliana, UniProt O04197+Q8W4J8); details: 50 µM COR; 28 °C, 5 days; JAZ co-receptor
T6 construct: gene COI1; Saccharomyces cerevisiae AH109; degron VPQARK
T6 sequence (O04197 whole entry): as above
T6 sequence (Q8W4J8 whole entry): as the sequence (Q8W4J8 whole entry) above

AtCOI1–FaJAZ10 = molecular target: T7, AtCOI1–FaJAZ10 (Arabidopsis thaliana; Fragaria x ananassa, UniProt A0A290U478+O04197); details: 50 µM COR; 28 °C, 5 days; JAZ co-receptor
T7 construct: gene COI1; mixed-species complex; Saccharomyces cerevisiae AH109
T7 sequence (O04197 whole entry): as the sequence (O04197 whole entry) above
T7 sequence (A0A290U478 entry or part of it): as the sequence (A0A290U478 entry or part of it) above

CC[C@H]1C=C(C(=O)N[C@@]2(C(=O)O)C[C@@H]2CC)[C@H]2CCC(=O)[C@H]2C1 [coronatine]
yeast two-hybrid (GAL4), COR-dependent growth (FaCOI1–FaJAZ10): FaJAZ1 and FaJAZ10 interacted with FaCOI1 in a COR-dependent manner
yeast two-hybrid (GAL4), COR-dependent growth (FaCOI1–FaJAZ1): FaJAZ1 and FaJAZ10 interacted with FaCOI1 in a COR-dependent manner
yeast two-hybrid (GAL4), COR-dependent growth (AtJAZ9 and FaCOI1): only a positive interaction between AtJAZ9 and FaCOI1 promoted by COR was observed
yeast two-hybrid (GAL4), COR-dependent growth (AtCOI1 with AtJAZ1): AtJAZ1 and AtJAZ9 interacted with AtCOI1 which was observed by colony growth
yeast two-hybrid (GAL4), COR-dependent growth (AtCOI1–FaJAZ1): both FaJAZ1 and FaJAZ10 interacted with AtCOI1 in restrictive media and supplemented with COR
yeast two-hybrid (GAL4), COR-dependent growth (AtCOI1 with AtJAZ9): AtJAZ1 and AtJAZ9 interacted with AtCOI1 which was observed by colony growth
yeast two-hybrid (GAL4), COR-dependent growth (AtCOI1–FaJAZ10): both FaJAZ1 and FaJAZ10 interacted with AtCOI1 in restrictive media and supplemented with COR
